Data as given in ChEMBL document CHEMBL4622909, “PARP inhibitor cyanine dye conjugate with enhanced cytotoxic and antiproliferative activity in patient derived glioblastoma cell lines” (Bioorg Med Chem Lett, 2020).
The source made the active and inactive calls. No cut-off for these calls is given here.

Tests used:
GBM [1] = assay: Cytotoxicity against human patient derived GBM cells assessed as reduction in cell viability measured after 48 hrs by Hoechst staining based assay; format: functional
GBM [2] = assay: Potency index, ratio of rucaparib IC50 to test compound IC50 for human patient derived GBM cells assessed as reduction in cell viability measured after 48 hrs by Hoechst staining based assay; format: functional
GBM [3] = assay: Synergistic cytotoxicity against human patient derived GBM cells assessed as reduction in cell viability measured after 48 hrs in presence of temozolomide by Hoechst staining based assay; format: functional
GBM [4] = assay: Potency index, ratio of IR-786 IC50 to test compound IC50 for human patient derived GBM cells assessed as reduction in cell viability measured after 48 hrs by Hoechst staining based assay; format: functional
GBM [5] = assay: cells; format: functional, cell-based; conditions: Homo sapiens, 48 h
Description: Synergistic antiproliferative activity against human patient derived GBM cells assessed as reduction in cell proliferation measured after 48 hrs in presence of temozolomide by Edu incorporation assay

GBM [6] = assay: Antiproliferative activity against human patient derived GBM cells assessed as reduction in cell proliferation measured after 48 hrs by Edu incorporation assay relative to compound alone; format: functional
GBM [7] = assay: Antiproliferative activity against human patient derived GBM cells assessed as reduction in cell proliferation measured after 48 hrs by Edu incorporation assay; format: functional, cell-based
GBM [8] = assay: Potency index, ratio of IR-786 IC50 to test compound IC50 for synergistic cytotoxicity against human patient derived GBM cells assessed as reduction in cell viability measured after 48 hrs in presence of temozolomide by Hoechst staining based assay; format: functional
GBM [9] = assay: Ratio of EC50 for cytotoxicity against human patient derived GBM assessed as reduction in cell viability measured after 48 hrs by Hoechst staining based assay to EC50 for synergistic cytotoxicity against human patient derived GBM assessed as reduction in cell viability measured after 48 hrs in presence of temozolomide by Hoechst staining based assay; format: functional
GBM [10] = assay: Antiproliferative activity against human patient derived GBM cells assessed as reduction in cell proliferation up to 100 uM measured after 48 hrs by Edu incorporation assay; format: functional, cell-based

Structure (SMILES)	EC50 (GBM [1])	Ratio IC50 (GBM [2])	EC50 (GBM [3])	Ratio IC50 (GBM [4])	IC50 (GBM [5])	Ratio IC50 (GBM [6])	IC50 (GBM [7])	Ratio IC50 (GBM [8])	Ratio EC50 (GBM [9])	Activity (GBM [10])
CN1/C(=C/C=C2\CCCC(/C=C/C3=[N+](C)c4ccccc4C3(C)C)=C2N2CCN(c3ccc(-c4[nH]c5cc(F)cc6c5c4CCNC6=O)cc3)CC2)C(C)(C)c2ccccc21.[I-]	0.128 µM	780	0.056 µM	13.5	0.02 µM	2	0.021 µM	7	2	–
CNCc1ccc(-c2[nH]c3cc(F)cc4c3c2CCNC4=O)cc1 [RUCAPARIB]	> 100 µM	–	> 100 µM	–	2.26 µM	24	53.4 µM	–	–	–
Cn1nnc2c(C(N)=O)ncn2c1=O	–	–	–	–	–	–	–	–	–	inactive
